Values of other authors, collected in patent US10350275B2, “Methods of cytotoxic gene therapy to treat tumors” (Advantagene, Inc., priority 2013, dated 2019).

Tested on: tumors
Conditions: monotherapy; Senzer et al 2009

Substance: Anti-CTLA-4: Immune checkpoint inhibitor antibody; Ipilimumab (anti-CTLA-4) approved for metastatic melanoma
- complete and partial responses, share of subjects: about 10.9%
